The target of experiment [1] is High affinity nerve growth factor receptor (Homo sapiens, UniProt P04629). As to the kind of experiment: In Vitro Activity Test on TRKA, TRKB, TRKC Kinase. The procedure:
(§1) Table 1: Experimental MethodThe tested compounds were subjected to 3-fold serial dilution to reach a final concentration of 1 μM to 0.05 nM (10 concentrations), duplicates for each concentration; and the DMSO concentration in the detection reaction was 1%.TRKA Enzyme Reaction:0.2 ng/μL TRKA protein kinase, 1 μM TK Substrate-biotin polypeptide substrate, 14.68 μM ATP, 1×enzymatic buffer, 5 mM MgCl2, and 1 mM DTT. The assay plate was White Proxiplate384-Plus plate (PerkinElmer), and the reaction was incubated at room temperature for 40 min, and the assay volume was 10 μL.TRKB Enzyme Reaction:0.037 ng/μL TRKB protein kinase, 1 μM TK Substrate-biotin polypeptide substrate, 4.77 μM ATP, 1× enzymatic buffer, 5 mM MgCl2, 1 mM MnCl2 and 1 mM DTT. The assay plate was White Proxiplate 384-Plus plate (PerkinElmer), the reaction was incubated at room temperature for 50 min, and the assay volume was 10 μL.TRKC Enzyme Reaction:0.037 ng/μL TRKC protein kinase, 1 μM TK Substrate-biotin polypeptide substrate, 25.64 μM ATP, 1× enzymatic buffer, 5 mM MgCl2, and 1 mM DTT. The detection plate was White Proxiplate 384-Plus plate (PerkinElmer), the reaction was incubated at room temperature for 40 min, and the assay volume was 10 μL.Detection Steps:10 μL of detection reagent (containing 0.125 μM SA-XL665 and 5 μL 1×TK-Antibody) was added to the plate and incubated overnight at room temperature. Synergy Neo 2 was used to read the plate.

Experiment [2] has as its target BDNF/NT-3 growth factors receptor (Homo sapiens, UniProt Q16620). As to the kind of experiment: In Vitro Activity Test on TRKA, TRKB, TRKC Kinase. Here is the method:
as §1

Experiment [3] addresses NT-3 growth factor receptor (Homo sapiens, UniProt Q16288). The experiment is described as follows: In Vitro Activity Test on TRKA, TRKB, TRKC Kinase. The procedure:
as §1

Experiment [4] addresses High affinity nerve growth factor receptor [G595R] (Homo sapiens, UniProt P04629, G595R). As to the kind of experiment: In Vitro Activity Test on Mutant TRKA (G595R). The procedure:
Table 3: Experimental MaterialsThe recombinant human TRKA (G595R), TRKA (G667C) and TRKC (G623R) proteins were purchased from SignalChem. HTRF kinEASE TK kit was purchased from Cisbio Bioassays. Synergy Neo 2 of Biotek was used to read the plate. TRKA (G595R) Enzyme Reaction:0.12 ng/μL TRKA (G595R) kinase, 1 μM TK Substrate-biotin polypeptide substrate, 4.5 μM ATP, 1× enzymatic buffer, 5 mM MgCl2, and 1 mM DTT. The assay plate was White Proxiplate384-Plus plate (PerkinElmer), and the reaction was incubated at room temperature for 30 min, and the assay volume was 10 μL. Detection Steps:10 μL of detection reagent (containing 0.125 μM SA-XL665 and 5 μL 1×TK-Antibody) was added to the plate and incubated overnight at room temperature, and Synergy Neo 2 was used to read the plate.

Chain of NT-3 growth factor receptor (Q16288 whole entry): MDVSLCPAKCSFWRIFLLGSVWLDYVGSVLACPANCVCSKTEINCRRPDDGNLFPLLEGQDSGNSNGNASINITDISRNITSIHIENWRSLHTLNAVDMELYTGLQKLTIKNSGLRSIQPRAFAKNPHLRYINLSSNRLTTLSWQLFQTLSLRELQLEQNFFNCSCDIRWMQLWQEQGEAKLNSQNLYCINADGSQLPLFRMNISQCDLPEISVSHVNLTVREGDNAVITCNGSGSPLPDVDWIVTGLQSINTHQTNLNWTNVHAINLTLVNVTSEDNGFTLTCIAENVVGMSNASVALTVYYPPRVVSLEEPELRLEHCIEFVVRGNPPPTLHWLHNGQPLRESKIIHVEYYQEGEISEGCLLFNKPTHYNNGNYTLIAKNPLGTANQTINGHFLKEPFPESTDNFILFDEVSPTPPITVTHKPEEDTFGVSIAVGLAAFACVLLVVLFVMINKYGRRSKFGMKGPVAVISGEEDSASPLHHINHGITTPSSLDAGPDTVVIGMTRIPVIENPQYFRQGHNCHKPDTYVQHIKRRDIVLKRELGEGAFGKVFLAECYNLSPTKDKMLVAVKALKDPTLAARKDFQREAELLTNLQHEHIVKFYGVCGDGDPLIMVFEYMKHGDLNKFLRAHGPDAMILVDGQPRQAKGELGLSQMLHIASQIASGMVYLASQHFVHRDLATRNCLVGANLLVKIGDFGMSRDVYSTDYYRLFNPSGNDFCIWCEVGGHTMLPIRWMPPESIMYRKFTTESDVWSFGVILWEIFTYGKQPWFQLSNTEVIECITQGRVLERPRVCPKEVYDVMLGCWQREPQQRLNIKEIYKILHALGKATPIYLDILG
Chain of BDNF/NT-3 growth factors receptor (Q16620 whole entry): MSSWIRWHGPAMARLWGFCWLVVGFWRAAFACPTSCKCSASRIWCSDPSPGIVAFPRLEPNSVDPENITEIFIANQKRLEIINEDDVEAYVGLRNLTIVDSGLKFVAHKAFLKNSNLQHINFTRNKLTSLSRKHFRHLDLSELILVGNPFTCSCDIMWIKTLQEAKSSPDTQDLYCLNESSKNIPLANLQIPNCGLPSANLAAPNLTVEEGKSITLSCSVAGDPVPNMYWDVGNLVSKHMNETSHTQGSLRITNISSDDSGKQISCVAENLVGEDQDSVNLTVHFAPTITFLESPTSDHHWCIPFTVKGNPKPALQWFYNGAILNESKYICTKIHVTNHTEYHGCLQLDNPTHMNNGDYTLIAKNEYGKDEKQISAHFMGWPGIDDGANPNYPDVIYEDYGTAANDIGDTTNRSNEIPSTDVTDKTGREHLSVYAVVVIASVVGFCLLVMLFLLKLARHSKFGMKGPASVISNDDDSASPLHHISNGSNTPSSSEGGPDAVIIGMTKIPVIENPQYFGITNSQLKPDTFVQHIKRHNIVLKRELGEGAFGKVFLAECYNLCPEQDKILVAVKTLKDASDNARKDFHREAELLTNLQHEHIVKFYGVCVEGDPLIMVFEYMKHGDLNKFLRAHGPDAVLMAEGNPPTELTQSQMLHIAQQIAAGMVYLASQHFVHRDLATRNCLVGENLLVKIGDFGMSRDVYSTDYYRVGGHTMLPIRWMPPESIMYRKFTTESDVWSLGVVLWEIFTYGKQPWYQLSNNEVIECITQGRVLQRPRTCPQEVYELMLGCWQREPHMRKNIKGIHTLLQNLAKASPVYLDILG
Chain of High affinity nerve growth factor receptor (P04629 whole entry): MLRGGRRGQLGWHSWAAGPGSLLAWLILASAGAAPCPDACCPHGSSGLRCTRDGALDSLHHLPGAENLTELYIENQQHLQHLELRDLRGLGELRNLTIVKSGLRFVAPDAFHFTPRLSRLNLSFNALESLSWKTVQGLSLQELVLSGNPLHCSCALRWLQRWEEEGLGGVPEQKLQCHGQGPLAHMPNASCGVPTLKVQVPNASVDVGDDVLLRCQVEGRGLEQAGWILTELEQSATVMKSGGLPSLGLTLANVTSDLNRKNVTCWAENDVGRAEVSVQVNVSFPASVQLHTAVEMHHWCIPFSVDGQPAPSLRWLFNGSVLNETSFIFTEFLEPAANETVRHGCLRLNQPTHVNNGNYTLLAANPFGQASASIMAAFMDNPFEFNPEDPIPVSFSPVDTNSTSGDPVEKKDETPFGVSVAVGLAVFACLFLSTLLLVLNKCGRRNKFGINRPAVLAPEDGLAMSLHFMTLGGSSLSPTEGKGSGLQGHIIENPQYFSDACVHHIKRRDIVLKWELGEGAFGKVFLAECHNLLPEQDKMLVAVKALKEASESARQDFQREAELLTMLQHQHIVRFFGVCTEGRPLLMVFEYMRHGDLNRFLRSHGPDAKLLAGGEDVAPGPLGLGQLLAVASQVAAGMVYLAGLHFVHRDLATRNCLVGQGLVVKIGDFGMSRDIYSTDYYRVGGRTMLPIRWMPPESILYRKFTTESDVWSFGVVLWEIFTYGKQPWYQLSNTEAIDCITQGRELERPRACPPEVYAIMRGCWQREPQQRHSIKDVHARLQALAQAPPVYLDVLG
Chain of High affinity nerve growth factor receptor [G595R] (P04629 33-796 G595R limits assumed): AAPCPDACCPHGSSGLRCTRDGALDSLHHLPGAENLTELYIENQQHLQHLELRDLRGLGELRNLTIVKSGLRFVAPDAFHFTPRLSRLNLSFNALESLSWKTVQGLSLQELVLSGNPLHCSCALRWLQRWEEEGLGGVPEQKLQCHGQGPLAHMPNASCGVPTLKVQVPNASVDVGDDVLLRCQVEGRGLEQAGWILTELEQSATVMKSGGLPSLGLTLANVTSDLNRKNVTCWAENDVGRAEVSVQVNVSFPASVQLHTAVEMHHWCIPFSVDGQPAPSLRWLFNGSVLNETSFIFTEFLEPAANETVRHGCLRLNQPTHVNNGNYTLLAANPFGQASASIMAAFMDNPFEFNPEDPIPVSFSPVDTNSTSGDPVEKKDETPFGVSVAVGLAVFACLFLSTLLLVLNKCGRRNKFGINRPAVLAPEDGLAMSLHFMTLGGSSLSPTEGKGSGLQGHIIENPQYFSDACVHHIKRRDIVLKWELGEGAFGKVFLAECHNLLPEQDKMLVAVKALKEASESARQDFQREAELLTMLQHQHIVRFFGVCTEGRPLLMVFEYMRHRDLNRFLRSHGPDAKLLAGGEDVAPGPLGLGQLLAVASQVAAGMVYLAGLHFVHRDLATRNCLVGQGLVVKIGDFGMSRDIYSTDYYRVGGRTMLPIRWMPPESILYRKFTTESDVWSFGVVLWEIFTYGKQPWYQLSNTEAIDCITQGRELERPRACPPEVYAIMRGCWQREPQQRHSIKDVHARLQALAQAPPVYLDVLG

Turning to `CNC(=O)c1cnc2[nH]nc(N3CCC[C@@H]3c3cc(F)ccc3F)c2c1` [US12391687, Example 7], the IC50 in experiment [1], in experiment [2] and in experiment [3] was less than 10 nM each time.

On to `Fc1ccc(F)c([C@H]2C[C@H](F)CN2c2n[nH]c3ncc(-c4cnn(C5CNC5)c4)cc23)c1` [US12391687, Example 26], for which the IC50 in experiment [1], in experiment [2] and in experiment [3] was less than 1 nM in each case.

With `CC(C)OCc1nnc(-c2cnc3[nH]nc(N4C[C@@H](F)C[C@@H]4c4cc(F)ccc4F)c3c2)o1` [US12391687, Example 42], the IC50 in experiment [1], in experiment [2] and in experiment [3] was less than 1 nM each time.

For the molecule `NC(=O)CCNC(=O)c1cnc2[nH]nc(N3CCC[C@@H]3c3cc(F)ccc3F)c2c1` [US12391687, Example 15], the half-maximal inhibitory concentration (IC50) in experiment [1], in experiment [2] and in experiment [3] was less than 10 nM in each case.

Turning to `O=C(Nc1cnc2[nH]nc(N3C[C@@H](F)C[C@@H]3c3cc(F)ccc3F)c2c1)c1ccc(N2CC[C@H](O)C2)nc1` [US12391687, Example 11], the IC50 in experiment [4] is less than 10 nM; in experiment [2], less than 1 nM; in experiment [3], less than 10 nM.

The IC50 is the point on the concentration scale where inhibition reaches its midpoint.

(Values after BindingDB's records for patent US12391687 (Shanghai Ennovabio Pharmaceuticals, 2025).)
